Measurements taken from patent publication US6110961A, “Phenoxathin derivatives as inhibitors of monoamine oxidase” (Krenitsky Pharmaceuticals, Inc., priority 1999, dated 2000).

Test system: liver MAO-A
Assay: not given
Details: single oral dose giving approximately 80% inhibition of brain MAO-A; 3 hours

SMILES	inhibition of liver MAO-A
NNCCc1ccccc1 [phenelzine]	≥ 90%

Test system: MAO
Assay: not given
Details: background art; cited from earlier work

SMILES	selectivity and reversibility of MAO inhibition
N[C@@H]1C[C@H]1c1ccccc1 (relative stereo) [tranylcypromine]	non-selective, irreversible inhibitors
Cc1cc(C(=O)NNCc2ccccc2)no1 [isocarboxazid]	non-selective, irreversible inhibitors
NNCCc1ccccc1 [phenelzine]	non-selective, irreversible inhibitors

Biological target: T1, MAO-A (Rattus norvegicus, UniProt P21396)
T1 construct: mitochondrial extracts of rat brain; from tissue; host or cells: rat brain, mitochondrial extracts
T1 sequence (P21396 1-526): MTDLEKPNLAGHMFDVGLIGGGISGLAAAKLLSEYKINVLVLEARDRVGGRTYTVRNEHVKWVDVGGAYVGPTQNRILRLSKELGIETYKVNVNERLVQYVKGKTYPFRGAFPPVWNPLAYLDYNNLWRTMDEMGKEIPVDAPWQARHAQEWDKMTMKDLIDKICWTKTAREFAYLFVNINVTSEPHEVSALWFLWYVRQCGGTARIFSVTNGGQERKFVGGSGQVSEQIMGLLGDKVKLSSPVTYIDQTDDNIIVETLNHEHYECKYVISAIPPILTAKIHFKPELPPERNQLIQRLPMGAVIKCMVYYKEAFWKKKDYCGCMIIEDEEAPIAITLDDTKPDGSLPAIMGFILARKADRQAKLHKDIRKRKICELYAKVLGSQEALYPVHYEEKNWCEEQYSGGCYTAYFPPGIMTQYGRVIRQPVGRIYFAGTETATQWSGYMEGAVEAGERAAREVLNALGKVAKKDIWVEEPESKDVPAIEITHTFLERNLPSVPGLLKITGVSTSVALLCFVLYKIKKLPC
Assay: MAO-A inhibition in mitochondrial extracts of rat brain (in vitro, double-label assay)
Assay type: biochemical
Details: [3H]serotonin 0.2 mM substrate
Protocol: MAO was assayed with [^3 H]serotonin (0.2 mM, 5 Ci/mole) and [^14 C]β-phenethylamine (10 μM, 3 Ci/mole) as substrates in a double-label assay (white and Glassman, J. Neurochem. 29:987-97 (1977)). Under these conditions, serotonin is selectively metabolized by MAO-A and β-phenethylamine by MAO-B. […]
Compounds of formula (I) produced a potent selective inhibition of MAO-A in mitochondrial extracts of rat brain, the IC50 s (concentration producing 50% inhibition) being shown in Table I. This inhibition was competitive vs. the substrates serotonin or tyramine.
The results are shown in Table 1 with the IC50 being the concentration providing 50% inhibition. No significant inhibition of MAO-B was found with these compounds.

SMILES	IC50	MAO-A Inhibition (rat brain) in vitro IC50
CCC(C)Oc1ccc2c(c1)Oc1ccccc1S2(=O)=O (racemic) [Compound 13, (rac)-3-(1-methylpropoxy)phenoxathiin-10,10-dioxide]	14 nM	–
CC(CO)Oc1ccc2c(c1)Oc1ccccc1S2(=O)=O (racemic) [Compound 18, (rac)-2-(3-phenoxathiinyloxy)propanol S,S-dioxide]	20 nM	–
O=S1(=O)c2ccccc2Oc2cc(OC(CF)C(F)(F)F)ccc21 (racemic) [Compound 26, (rac)-3-(2-fluoro-1-(trifluoromethyl)ethoxy)phenoxathiin-10,10-dioxide]	–	active
CC(CF)Oc1ccc2c(c1)Oc1ccccc1S2(=O)=O (racemic) [Compound 27, (rac)-3-(1-(fluoromethyl)ethoxy)phenoxathiin-10,10-dioxide]	–	active
O=S1(=O)c2ccccc2Oc2cc(OC(CO)C(F)(F)F)ccc21 (racemic) [Compound 28, (rac)-2-(3-phenoxathiinyloxy)-2-(trifluoromethyl)ethanol-S,S-dioxide]	5 nM	–
CC(Oc1ccc2c(c1)Oc1ccccc1S2(=O)=O)C(F)(F)F (single isomer, unassigned) [Compound 30, (S*)-3-(2,2,2-trifluoro-1-methylethoxy)phenoxathiin-10,10-dioxide]	14 nM	–
CCCCOc1ccc2c(c1)Oc1ccccc1S2(=O)=O [Compound 8, 3-butoxyphenoxathiin 10,10-dioxide]	5 nM	–
CC(C)Oc1ccc2c(c1)Oc1cc(F)c(F)cc1S2(=O)=O [Compound 9, 7,8-difluoro-3-isopropoxyphenoxathiin-10,10-dioxide]	6 nM	–
CC(C)Oc1ccc2c(c1)Oc1cccc(F)c1S2(=O)=O [Compound 10, 9-fluoro-3-isopropoxyphenoxathiin 10,10-dioxide]	8 nM	–
CC(C)Oc1ccc2c(c1)Oc1cc(F)ccc1S2(=O)=O [Compound 11, 7-fluoro-3-isopropoxyphenoxathiin 10,10-dioxide]	9 nM	–
CC(C)Oc1cc2c(cc1F)S(=O)(=O)c1ccccc1O2 [Compound 12, 2-fluoro-3-isopropoxyphenoxathiin 10,10-dioxide]	12 nM	–
COc1ccc2c(c1)Oc1ccccc1S2(=O)=O [Compound 14, 3-methoxyphenoxathiin 10,10-dioxide]	20 nM	–
CC(C)(C)Oc1ccc2c(c1)Oc1ccccc1S2(=O)=O [Compound 15, 3-tert-butoxyphenoxathiin 10,10-dioxide]	26 nM	–
CC(C)Oc1cc2c(cc1F)S(=O)(=O)c1ccc(F)cc1O2 [Compound 16, 2,7-difluoro-3-isopropoxyphenoxathiin 10,10-dioxide]	35 nM	–
CCCCCOc1ccc2c(c1)Oc1ccccc1S2(=O)=O [Compound 17, 3-(pentyloxy)phenoxathiin 10,10-dioxide]	55 nM	–
CC(C)Oc1cc(F)c2c(c1)Oc1cc(F)ccc1S2(=O)=O [Compound 19, 1,7-difluoro-3-isopropoxyphenoxathiin 10,10-dioxide]	5 nM	–
C[C@@H](CO)Oc1ccc2c(c1)Oc1ccccc1S2(=O)=O [Compound 21, (S)-(+)-2-(3-phenoxathiinyloxy)propanol S,S-dioxide]	70 nM	–
O=S1(=O)c2ccccc2Oc2cc(OCC(F)(F)F)ccc21 [Compound 22, 3-(2,2,2-trifluoroethoxy)phenoxathiin 10,10-dioxide]	8 nM	–
O=S1(=O)c2ccc(F)cc2Oc2cc(OCC(F)(F)F)ccc21 [Compound 31, 3-fluoro-7-(2,2,2-trifluoroethoxy)phenoxathiin-10,10-dioxide]	–	active

The next lines start with the values.

IC50	MAO-A Inhibition (rat brain) in vitro IC50	SMILES
5 nM	–	CC(Oc1ccc2c(c1)Oc1ccccc1S2(=O)=O)C(F)(F)F (racemic) [Compound 20, (rac)-3-(2,2,2-trifluoro-1-methylethoxy)phenoxathiin-10,10-dioxide]
1.8 nM	–	CC(Oc1ccc2c(c1)Oc1ccccc1S2(=O)=O)C(F)F (racemic) [Compound 25, (rac)-3-(1-(difluoromethyl)ethoxy)phenoxathiin-10,10-dioxide]
2 nM	–	CC(Oc1ccc2c(c1)Oc1ccccc1S2(=O)=O)C(F)(F)F (single isomer, unassigned) [Compound 29, (R*)-3-(2,2,2-trifluoro-1-methylethoxy)phenoxathiin-10,10-dioxide]
1.1 nM	–	CC(C)Oc1cc(F)c2c(c1)Oc1ccccc1S2(=O)=O [Compound 1, 1-fluoro-3-isopropoxyphenoxathiin 10,10-dioxide]
2 nM	–	CCOc1ccc2c(c1)Oc1ccccc1S2(=O)=O [Compound 2, 3-ethoxyphenoxathiin 10,10-dioxide]
2.5 nM	–	CCCOc1ccc2c(c1)Oc1ccccc1S2(=O)=O [Compound 3, 3-propoxyphenoxathiin 10,10-dioxide]
3 nM	–	CC(C)Oc1cc2c(c(F)c1F)S(=O)(=O)c1ccccc1O2 [Compound 4, 1,2-difluoro-3-isopropoxyphenoxathiin 10,10-dioxide]
3.4 nM	–	CC(C)Oc1ccc2c(c1)Oc1ccccc1S2(=O)=O [Compound 5, 3-isopropoxyphenoxathiin 10,10-dioxide]
4 nM	–	CC[C@@H](C)Oc1ccc2c(c1)Oc1ccccc1S2(=O)=O [Compound 6, (R)-3-(1-methylpropoxy)phenoxathiin 10,10-dioxide]
4 nM	–	CC[C@H](C)Oc1ccc2c(c1)Oc1ccccc1S2(=O)=O [Compound 7, (S)-3-(1-methylpropoxy)phenoxathiin 10,10-dioxide]
2 nM	–	O=S1(=O)c2ccccc2Oc2cc(OC(CF)CF)ccc21 [Compound 23, 3-[2-fluoro-1-(fluoromethyl)ethoxy]phenoxathiin-10,10-dioxide]
3.5 nM	–	O=S1(=O)c2ccccc2Oc2cc(OC(C(F)F)C(F)F)ccc21 [Compound 24, 3-(2,2-(difluoro)-1-(difluoromethyl)ethoxy)phenoxathiin-10,10-dioxide]
